Measurements reported in patent US20220249534A1, “METHOD OF TREATING CANCER WITH NUCLEOTIDE THERAPEUTICS” (Massachusetts Institute of Technology, priority 2021, published 2022).
pIC50: −log10 of the molar value. Like-named read-outs stand apart in the source and are kept apart here.

Key:
A549 cells [1] = assay: Proliferation rate of A549 cells with added single nucleoside/base; format: cell-based, human; settings: for pIC50: Homo sapiens
Description: (§1) This effect was dose-titratable over a 0.1 mM to 2.0 mM range, with increasing concentrations of multiple single nucleotides completely preventing cell proliferation.
(§2) In Table 1, the approximate concentration of each nucleotide that when added slows the proliferation of the indicated cells by half is shown.
(§3) All adherent and human leukemia cell lines were cultured in DMEM or RPMI supplemented with 10% heat inactivated fetal bovine serum at 37° C. with 5% CO2. The Lys-GFP-ER-HoxA9 63.3 cells were cultured in RPMI supplemented with 10% fetal bovine serum, stem cell factor, and beta-estradiol as described previously (Sykes et al., (2016), Cell. 167(1): 171-186.e15). All cell lines regularly tested negative for mycoplasma.
(§4) To assess proliferation, the number of cells seeded for each cell line allowed for exponential growth over the course of the assay. To assess effects of nucleotide treatment, cells were washed three times with PBS and 4 mL of treatment media was added one day after plating cells. The following formula was used to calculate proliferation rate:
(§5) Doublings per day=[Log2(Final day 4 cell count/Initial day 0 cell count)]/4 days

143B cells = assay: Proliferation rate of 143B cells with added single nucleoside/base; format: cell-based; settings: Homo sapiens, read-out: Added nucleoside/base concentration that slows proliferation by half
Description: as §1, §2, §3, §4, §5

H1299 cells = assay: Proliferation rate of H1299 cells with added single nucleoside/base; format: cell-based; settings: Homo sapiens
Description: as §1, §2, §3, §4, §5

A2780 cells = assay: Proliferation rate of A2780 cells with added single nucleoside/base; format: cell-based; settings: Homo sapiens
Description: as §1, §2, §3, §4, §5

U2OS cells = assay: Proliferation rate of U2OS cells with added single nucleoside/base; format: cell-based; settings: Homo sapiens, read-out: Added nucleoside/base concentration that slows proliferation by half
Description: as §1, §2, §3, §4, §5

MDA-MB-468 cells = assay: Proliferation rate of MDA-MB-468 cells with added single nucleoside/base; format: cell-based; settings: Homo sapiens
Description: as §1, §2, §3, §4, §5

A549 cells [2] = assay: LCMS analysis of intracellular nucleotide levels in A549 cells; format: cell-based, human
Description: Where indicated, cells were incubated in media with 4 mM ^15N-amide-glutamine and/or 200 μM ^13C-guanine or ^13C-adenine for 24 hours prior to LCMS Analysis of metabolites. For assessment of metabolites, cells were washed three times with PBS prior to extracting polar metabolites from cells: plates were placed on ice, cells were washed with ice-cold blood bank saline, and 500 μl of ice-cold 80% methanol in water with 250 nM ^13C/^15N labeled amino acid standards (MSK-A2-1.2: Cambridge Isotope Laboratories, Inc.) was added to each well. Cells were scraped, each sample was vortexed for 10 minutes at 4° C., and then centrifuged at maximum speed for 10 minutes at 4° C. Samples were dried under nitrogen gas and resuspended in 25 μl of a 50/50 acetonitrile/water mixture. Metabolites were measured using a Dionex UltiMate 3000 ultra-high performance liquid chromatography system connected to a Q Exactive benchtop Orbitrap mass spectrometer, equipped with an Ion Max source and a HESI II probe (Thermo Fisher Scientific). […]
Metabolites were monitored in full-scan, polarity-switching, mode. […] Relative quantitation of metabolites was performed with XCalibur QuanBrowser 2.2 (Thermo Fisher Scientific) using a 5 ppm mass tolerance and referencing an in-house retention time library of chemical standards. […]

Chk1 and Chk2 = assay: Replication stress signaling: phosphorylation of ATR/ATM targets Chk1 and Chk2; format: cell-based; settings: stronger signaling at higher concentrations
Source text: To determine if nucleotide imbalance causes replication stress in a cancer cell, targets of the ATR and ATM kinases were examined after the addition of a nucleotide to change the internal nucleotide ratio. The ATR and ATM kinases are components of the cellular response to DNA damage, and sense single-stranded DNA and DNA double-strand breaks, respectively. The respective targets of ATR and ATM, Chk1 and Chk2, are major effectors of the DNA damage response. […] The appearance of p-Chk1 occurred first between 12 hours and 24 hours of guanine treatment, followed by the appearance of p-Chk2 between 48 hours and 72 hours. Induction of the replication stress response was reversed by addition of adenine together with guanine. A similar induction of ATR and ATM signaling occurred with any excess nucleotide supplementation that impaired S phase progression, but not with leucine deprivation, consistent with impaired DNA replication. Inhibiting total purine or pyrimidine synthesis induced phosphorylation of Chk1 and Chk2 but to a lesser extent than Guanosine treatment.

[3] = Comet tail assay of DNA damage; format: cell-based; settings: 24 hours; small fraction of treated cells
Source text: The cancer cell is contacted with that amount of purine, purine precursor, purine analog, pyrimidine, pyrimidine precursor, and/or pyrimidine which, once entering the cell, changes the cell's internal baseline purine:pyrimidine ratio and induces replication stress in the cell. The induction of replication stress can be measured, in any way known in the art, e.g., with the Comet assay which measures DNA damage. In this assay, cells are mixed in low melting point agarose on a microscope slide and are lysed with a detergent, e.g., 1% N-lauryl sarcosine, 0.5% Triton X-100, DMSO, and high salt, e.g., 2.5 M NaCl, 0.1 M EDTA and 10 mM Tris, to form nucleoids containing supercoiled loops of DNA that are linked to the nuclear matrix. After electrophoresis at high pH structures can be observed resembling comets, visualized by fluorescence microscopy. The intensity of the comet tail relative to the head is proportional to the number of breaks in the DNA. Comets can be scored with dedicated software such as, but not limited to, CaspLab software or OpenComet software.

63.3 cells = assay: Differentiation of Lys-GFP-ER-HoxA9 63.3 cells by flow cytometry; format: cell-based; settings: 10^-3 to 10^-7 M, FIG. 4A
Description: (§6) That exogenous nucleotides can direct cancer cells to undergo differentiation was determined as follows. Thymidine was added at concentrations ranging from 10^−3 to 10^−7 M to 63.3 cells (FIG. 4A), THP1 cells (FIG. 4B) and U937 cells (FIG. 4C). Cell differentiation was monitored by CD11b+/CD16+ expression, and by CD11b+ total expression.
as §3
(§7) The Lys-GFP-ER-HoxA9 cells or human leukemia cell lines were grown in round-bottom tissue-culture treated plates. Following a 4-day incubation with nucleotides, cells were incubated with antibodies, washed, incubated with FACS buffer containing DAPI, and analyzed by flow cytometry. Viability was assessed by forward and side scatter as well as by DAPI exclusion. For the Lys-GFP-ER-HoxA9 63.3 cells, differentiation was assessed by GFP and staining with an anti-CD11b-APC antibody (final concentration of 1:400; Clone M1/70, Biolegend). […]

THP1 cells = assay: Differentiation of THP1 cells by flow cytometry; format: cell-based, human; settings: 10^-3 to 10^-7 M, FIG. 4B
Description: as §6, §3, §7

U937 cells = assay: Differentiation of U937 cells by flow cytometry; format: cell-based, human; settings: 10^-3 to 10^-7 M, FIG. 4C
Description: as §6, §3, §7

[4] = A549 cells, approximate concentration, read-out: Added nucleoside/base concentration that slows proliferation by half
[5] = 143B cells, approximate concentration
[6] = NCI-H1299, H1299 cells, approximate concentration, read-out: Added nucleoside/base concentration that slows proliferation by half
[7] = A2780 cells, approximate concentration, read-out: Added nucleoside/base concentration that slows proliferation by half
[8] = U2OS cells, approximate concentration
[9] = MDA-MB-468 cells, approximate concentration, read-out: Added nucleoside/base concentration that slows proliferation by half

Row | Compound | pIC50 (A549 cells [1]; [4]) | pIC50 (143B cells; [5]) | pIC50 (H1299 cells; [6]) | pIC50 (A2780 cells; [7]) | pIC50 (U2OS cells; [8]) | pIC50 (MDA-MB-468 cells; [9]) | further results
1 | Nc1ccn([C@H]2C[C@H](O)[C@@H](CO)O2)c(=O)n1 [Deoxycytidine] | – | – | – | – | – | – | Effect on proliferation (A549 cells [1]; A549 cells, FIG. 1B, higher concentrations): blocked proliferation
2 | Nc1ncnc2c1ncn2[C@@H]1O[C@H](CO)[C@@H](O)[C@H]1O [A, adenosine] | 2.68 | 3.00 | 2.96 | 3.00 | 3.02 | 3.10 | –
3 | Nc1nc2nc[nH]c2c(=O)[nH]1 [G, guanine] | – | – | – | – | – | – | pIC50 (A549 cells [1]; A549, read-out: Added nucleoside/base concentration that slows proliferation by half): 4.10; pIC50 (143B cells; 143B): 3.92; pIC50 (H1299 cells; NCI-H1299, read-out: Added nucleoside/base concentration that slows proliferation by half): 3.70; pIC50 (A2780 cells; A2780, read-out: Added nucleoside/base concentration that slows proliferation by half): 4.00; pIC50 (U2OS cells; U2OS): 3.60; pIC50 (MDA-MB-468 cells; MDA-MB-468, read-out: Added nucleoside/base concentration that slows proliferation by half): 3.82; Intracellular pools of guanylate nucleotides (GTP/GDP/GMP) (A549 cells [2]; FIGS. 2A and 3A-3B): dramatically increased; Intracellular levels of adenylate nucleotides (ATP/ADP/AMP) (A549 cells [2]; FIGS. 2B and 3C-3D): decreased; Phosphorylation of Chk1 and Chk2 (replication stress response) (Chk1 and Chk2): robust phosphorylation; DNA damage by comet tail assay [3]: minor increases in DNA damage
4 | Nc1ncnc2c1ncn2[C@H]1C[C@H](O)[C@@H](CO)O1 [dA, deoxyadenosine] | 2.92 | 3.22 | 3.10 | 3.52 | 3.22 | 3.65 | –
5 | Cc1cn([C@H]2C[C@H](O)[C@@H](CO)O2)c(=O)[nH]c1=O [T, thymidine] | 3.30 | – | 3.15 | 3.52 | 3.30 | 3.82 | Cell differentiation (CD11b+ markers) (63.3 cells): induced cell differentiation in a concentration dependent manner; Cell differentiation (CD11b+/CD16+ and CD11b+ total expression) (THP1 cells): induced cell differentiation in a concentration dependent manner; Cell differentiation (CD11b+/CD16+ and CD11b+ total expression) (U937 cells): induced cell differentiation in a concentration dependent manner
